Measurements taken from ChEMBL document CHEMBL5137020, “Electrostatic Complementarity in Structure-Based Drug Design” (J Med Chem, 2022).

Assays:
[1] = molecular target: T1, Cathepsin K (Homo sapiens, UniProt P43235); assay: Inhibition of Cathepsin K (unknown origin)
T1 sequence (P43235 whole entry): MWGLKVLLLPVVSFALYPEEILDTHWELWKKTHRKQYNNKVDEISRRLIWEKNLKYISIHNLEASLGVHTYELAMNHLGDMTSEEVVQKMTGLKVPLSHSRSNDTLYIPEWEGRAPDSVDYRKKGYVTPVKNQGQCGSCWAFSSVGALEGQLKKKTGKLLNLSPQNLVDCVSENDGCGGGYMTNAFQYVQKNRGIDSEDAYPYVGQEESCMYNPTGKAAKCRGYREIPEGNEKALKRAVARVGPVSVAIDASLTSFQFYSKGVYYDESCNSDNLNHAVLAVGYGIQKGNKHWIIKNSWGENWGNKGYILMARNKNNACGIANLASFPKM

[2] = species on record: Homo sapiens; assay: Inhibition of cIAP BIR3 domain (unknown origin) at 1000 uM relative to control
[3] = molecular target: Procathepsin L (Homo sapiens, UniProt P07711); assay: Inhibition of human Cathepsin L
Sequence of Procathepsin L (P07711 whole entry): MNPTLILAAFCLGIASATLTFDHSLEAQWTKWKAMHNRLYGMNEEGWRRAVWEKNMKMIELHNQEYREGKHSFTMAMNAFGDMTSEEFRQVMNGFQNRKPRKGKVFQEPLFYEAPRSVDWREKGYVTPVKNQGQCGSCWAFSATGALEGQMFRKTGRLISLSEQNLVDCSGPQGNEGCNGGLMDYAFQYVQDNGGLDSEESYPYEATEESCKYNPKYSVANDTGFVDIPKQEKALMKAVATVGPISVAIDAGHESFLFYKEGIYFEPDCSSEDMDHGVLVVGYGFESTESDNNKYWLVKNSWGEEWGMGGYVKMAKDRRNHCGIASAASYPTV

[4] = molecular target: Cathepsin S (Homo sapiens, UniProt P25774); assay: Inhibition of Cathepsin S (unknown origin)
Sequence of Cathepsin S (P25774 whole entry, the tested form may be a part): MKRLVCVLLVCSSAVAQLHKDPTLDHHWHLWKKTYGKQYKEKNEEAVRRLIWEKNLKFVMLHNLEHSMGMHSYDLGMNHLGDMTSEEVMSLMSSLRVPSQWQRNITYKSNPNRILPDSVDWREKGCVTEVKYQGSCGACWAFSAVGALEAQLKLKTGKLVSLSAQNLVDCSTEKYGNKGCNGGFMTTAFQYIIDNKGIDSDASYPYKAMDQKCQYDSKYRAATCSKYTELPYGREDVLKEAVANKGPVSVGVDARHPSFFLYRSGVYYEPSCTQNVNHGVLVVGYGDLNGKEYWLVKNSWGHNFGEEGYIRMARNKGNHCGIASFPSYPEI

[5] = species on record: Homo sapiens; assay: Inhibition of cIAP BIR3 domain (unknown origin) at 495 uM relative to control

Row | Structure (SMILES) | IC50 [1] [nM] | inhibition [2] [%] | IC50 [3] [nM] | IC50 [4] [nM] | inhibition [5] [%]
1 | COc1ccc(S(=O)(=O)[C@@H]2C[C@@H](C(=O)NC3(C#N)CC3)N(C(=O)C3(c4ccc(Cl)cn4)CC3)C2)c(Cl)c1 | 11000 | – | – | – | –
2 | C[C@@H]1CN(CC(=O)N2CCc3ccc(N)cc32)CCN1 | – | 8 | – | – | –
3 | N#CC1(NC(=O)[C@@H]2C[C@@H](S(=O)(=O)c3ccccc3Cl)CN2C(=O)C2(c3ncc(Br)cc3F)CNC2)CC1 | 2000 | – | 5 | 1 | –
4 | COc1ccc(S(=O)(=O)[C@@H]2C[C@@H](C(=O)NC3(C#N)CC3)N(C(=O)C3(c4ccc(Cl)cn4)CNC3)C2)c(Cl)c1 | 6500 | – | 36 | 1.4 | –
5 | C[C@@H]1CN(CC(=O)N2CCc3ccccc32)CCN1 | – | – | – | – | 42
